Laboratory results published in patent US20250188123A1, “PROTEASE INHIBITORS” (Regents of the University of Minnesota, priority 2022, published 2025).

Tests used:
human caspase-2 = biological target: T1, human caspase-2 (Homo sapiens, UniProt P42575); assay: Fluorescent enzyme assay, Casp2 (AFC substrate Z-VDVAD-AFC); assay type: biochemical; conditions: for Ki (Casp3) / Ki (Casp2): selectivity Casp2 over Casp3
T1 construct: inferred from pET23b, XhoI reverse primer without stop codon, Ni-NTA purification) (C); made in house; host or cells: E. coli BL21(DE3)
T1 sequence (P42575 170-452): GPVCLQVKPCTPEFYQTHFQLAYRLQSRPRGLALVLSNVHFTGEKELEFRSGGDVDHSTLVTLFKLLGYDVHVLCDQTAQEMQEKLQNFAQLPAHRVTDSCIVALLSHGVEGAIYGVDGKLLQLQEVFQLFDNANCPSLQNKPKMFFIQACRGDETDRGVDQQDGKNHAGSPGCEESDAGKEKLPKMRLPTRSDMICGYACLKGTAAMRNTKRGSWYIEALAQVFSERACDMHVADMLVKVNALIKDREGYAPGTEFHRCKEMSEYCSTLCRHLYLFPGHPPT
From the text: (§1) Human recombinant Casp1, 6, 7, and 9 were purchased from BioVision (Milpitas/CA, USA). AFC fluorogenic substrates and control peptides (AcYVAD-CHO, AcVDVAD-CHO, AcDEVD-CHO, AcVEID-CHO, and AcLEHD-CHO) were purchased from Bachem (Torrance/CA, USA). The pET23b vector encoding human caspase-3 was a gift of Dr. Michelle Arkin at University of California, San Francisco. Expression and purification of Casp3 was guided by previously described protocols (Denault J-B, Salvesen G S., Current Protocols in Protein Science, 2002, 30(1), 21.13. 1-21.13. 15). Briefly, the plasmid was transformed into E. coli Rosetta 2 pLyss DE3 cells that were cultured at 1 L scale in shake flasks. Five hours post induction with IPTG, cells were harvested through centrifugation (4000 g for 10 minutes at 4° C.), lysed by sonication, and centrifuged again for 30 minutes at 20000 g. Supernatant was resuspended in buffer (100 mM Tris pH 8.0, 500 mM NaCl). Purification was achieved by nickel-affinity chromatography followed by ion-exchange chromatography. Protein was diluted to 0.5 mg/mL and stored at −80° C. in 100 mM Tris, pH 8.0 supplemented with 10% glycerol. The typical yield for the expression, isolation, and purification was approximately 3 mg/L. The DNA encoding human caspase-2 (hCASP2, amino acids 170-452, free of the N-terminal caspase activation and recruitment domain) open reading frame (ORF) was amplified via polymerase chain reaction (PCR) from full-length hCASP2 cDNA (Origene, Rockville, MD; Cat #SC321316) using following primers: forward, 5′-[…]-3′; reverse, 5′-[…]-3′. The PCR fragment was then cloned into the pET23b vector (Millipore Sigma, Burlington, MA), and DNA sequence was verified by classic Sanger sequencing analyses. Site-directed mutageneses were carried out using a QuikChange II XL site-directed mutagenesis kit (Agilent Technologies, Santa Clara, CA; Cat #200522) according to the manufacturer's instruction. Expression of recombinant hCASP2 was induced using 150 μM isopropyl-β-D-thiogalactopyranoside (IPTG) (Promega, Madison, WI) in the BL21(DE3) E. coli strain (Millipore Sigma) at 16° C. for 14 hours while shaking at 250 rpm. Cells were then harvested via centrifugation at 6,000 g, 4° C. for 15 minutes, followed by lysis via sonication. Proteins were initially purified using HisPur Ni-NTA resin (Thermo Fisher Scientific, Waltham, MA) followed by metal chelating chromatography (5 mL HiTrap Chelating HP columns (GE Healthcare Life Sciences, Piscataway, NJ)). Further purification was carried out using anion exchange chromatography (5 mL HiTrap Q HP columns (GE Healthcare Life Sciences)) for hCASP2. Proteins were stored in 1× phosphate-buffered saline (pH 7.4) at 10 mg/mL (concentration determined using a BCA assay (Thermo Fisher Scientific)), −80° C. until further use.
(§2) KM values were determined experimentally to be the following: Casp1: 5.9 μM; Casp2: 37.1 μM; Casp3: 7.6 μM; Casp6: 14.5 μM; Casp7: 13.8 μM; Casp9: 149.1 μM. Enzymes were diluted in buffer: 100 mM MES (pH 6.5) for Casp2 and or 100 mM HEPES (pH 7.0) for all other caspases, plus 150 mM NaCl, 0.1% CHAPS, 1.5% sucrose, 10 mM DTT. Enzyme concentrations were 0.05 U/well for Casp1, 6, and 7; 0.5 U/well for Casp9, 20 nM/well for Casp2, and 2 nM/well for Casp3. Enzyme in buffer (19 μL) was added per well in a black 384-well Corning 4514 assay plate. Test compounds were serially diluted in dimethyl sulfoxide (DMSO) and plated in duplicate into a Corning 3656 transfer plate. Test compound was added to assay plates in 0.5 μL aliquots per well and mixed 10 times using a BiomekFX (Beckman Coulter). Compound and enzyme mixture was incubated at 37° C. for 5 minutes for aldehyde warheads and 45 minutes for cyano warheads. […]

human caspase-3 = biological target: T2, human caspase-3 (Homo sapiens, UniProt P42574); assay: Fluorescent enzyme assay, Casp3 (AFC substrate AcDEVD-AFC); assay type: biochemical
T2 construct: made in house; host or cells: E. coli Rosetta 2 pLysS DE3
T2 sequence (P42574 29-277): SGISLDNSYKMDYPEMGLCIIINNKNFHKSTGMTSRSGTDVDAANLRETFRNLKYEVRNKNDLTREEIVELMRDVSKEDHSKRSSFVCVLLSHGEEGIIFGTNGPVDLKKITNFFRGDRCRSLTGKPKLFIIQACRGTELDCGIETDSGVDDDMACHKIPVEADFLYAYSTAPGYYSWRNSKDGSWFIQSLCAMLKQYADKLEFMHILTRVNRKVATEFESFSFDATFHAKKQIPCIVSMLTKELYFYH
From the text: as §1, §2

Row | Structure (SMILES) | Ki (human caspase-2) [nM] | Ki (Casp3) / Ki (Casp2) (human caspase-2) | Ki (human caspase-3) [nM]
1 | Cc1ccc2c(c1)CCN(C(=O)[C@@H](NC(=O)[C@H](CCCC(=O)O)NC(=O)[C@H]1Nc3ccc(F)cc3C1(C)C)C(C)C)C2C(=O)N[C@H](C=O)CC(=O)O (stereo partly drawn) [Compound 13, (S)-6-(((S)-1-((S)-1-(((S)-1-carboxy-3-oxopropan-2-yl)carbamoyl)-6-methyl-3,4-dihydroisoquinolin-2(1H)-yl)-3-methyl-1-oxobutan-2-yl)amino)-5-((S)-5-fluoro-3,3-dimethylindoline-2-carboxamido)-6-oxohexanoic acid hydrotrifluoroacetate] | 646 | 155 | > 100000
2 | Cc1ccc2c(c1F)CCN(C(=O)[C@@H](NC(=O)[C@H](CCCC(=O)O)NC(=O)[C@@H]1Cc3ccccc3N1)C(C)C)C2C(=O)N[C@H](C=O)CC(=O)O (stereo partly drawn) [Compound 14, (S)-6-(((S)-1-((S)-1-(((S)-1-carboxy-3-oxopropan-2-yl)carbamoyl)-5-fluoro-6-methyl-3,4-dihydroisoquinolin-2(1H)-yl)-3-methyl-1-oxobutan-2-yl)amino)-5-((S)-indoline-2-carboxamido)-6-oxohexanoic acid hydrotrifluoroacetate] | 191 | 525 | > 100000
3 | Cc1ccc2c(c1F)CCN(C(=O)[C@@H](NC(=O)[C@H](CCCC(=O)O)NC(=O)[C@H]1Nc3ccc(F)cc3C1(C)C)C(C)C)C2C(=O)N[C@H](C=O)CC(=O)O (stereo partly drawn) [Compound 15, (S)-6-(((S)-1-((S)-1-(((S)-1-carboxy-3-oxopropan-2-yl)carbamoyl)-5-fluoro-6-methyl-3,4-dihydroisoquinolin-2(1H)-yl)-3-methyl-1-oxobutan-2-yl)amino)-5-((S)-5-fluoro-3,3-dimethylindoline-2-carboxamido)-6-oxohexanoic acid hydrotrifluoroacetate] | 174 | 575 | > 100000
